What was measured:
[1] = system: conscious mice; test: Determination of the prolongation of bleeding time (tail tip, oral, conscious mice); type: in vivo; details: Mus musculus, 2.5 mg/kg oral, after 1 hour, compared to control group, 5 animals per experiment
Description: To measure the bleeding time, 2.5 mg/kg of the test compound were administered orally to conscious mice. After one hour, 0.5 mm of the tip of the tail of each mouse was cut off and the droplets of blood were gently removed with filter paper every 30 seconds. The number of drops of blood thus obtained give a bleeding time (5 animals per experiment).
The results of the following table represent the prolongation of the bleeding time in percent as compared to a control group: […]

[2] = Acute toxicity, single oral dose; type: in vivo, mice; details: mouse, in vivo; single oral dose of 250 mg (E: 1000 mg), 14 days observation, mice; read-out: animals that died out of 10
Description: (§1) The acute toxicity of the compounds was determined in groups of 10 mice after oral administration of a single dose (observation period: 14 days): […]

[3] = system: mice; test: Acute toxicity, single oral dose; type: in vivo; details: groups of 10 mice, single oral dose, observation period 14 days; dose at which 0 out of 10 animals died
Description: as §1

[4] = system: phosphodiesterase (PDE) from human blood platelets; test: PDE Inhibition (human blood platelet phosphodiesterase, 3H-cAMP hydrolysis); type: biochemical; details: 1 μmol/liter 3H-cAMP, 15 minutes at 37° C., pH 7.4
Description: cAMP is hydrolyzed to AMP by phosphodiesterase (PDE) from various sources, including blood platelets.
The phosphodiesterase used was prepared by centrifugal extraction at 10,000 G from human blood platelets which were frozen in water and then thawed.
0.3 ml of a mixture containing 0.1 mol/liter of trihydroxy-aminomethane (pH 7.4), 3 mmols/liter of magnesium chloride, 1 mmol/liter of AMP, 1 μmol/liter of ^3 H-cAMP (specific activity about 10 MBq/μmol), PDE and the inhibitor under investigation (water in the case of the control) was incubated for 15 minutes at 37° C. The incubation was stopped by the addition of 0.5 ml zinc sulfate (0.266 mol/liter) and 0.5 ml barium hydroxide (0.226 mol/liter), the precipitate was centrifuged, and the activity remaining in the unreacted ^3 H-cAMP in the supernatant was determined. From a comparison of the results for inhibitor and control cases, the concentration of the respective inhibitor necessary for a 50% inhibiting effect (IC50) was calculated: […]

Row | Structure (SMILES) | change in vivo at 2.5 mg/kg [1] [%] | mortality at 336 h [2] [%] | Approximate acute toxicity (dose) [3] [mg] | IC50 [4] [nM]
1 | N=S(=O)(CCCCOc1ccc2c(c1)CCC(=O)N2)c1ccccc1 (stereo not shown) [B, 6-(4-phenylsulfoximino-butoxy)-3,4-dihydrocarbostyril] | > 161 | 0 | 250 | 2000
2 | N=S(=O)(CCCCOc1ccc2c(c1)CCC(=O)N2)c1ccc(F)cc1 (stereo not shown) [C, 6-[4-(4-fluorophenyl-sulfoximino)-butoxy]-3,4-dihydrocarbostyril] | 125 | 0 | 250 | 1200
3 | CS(=N)(=O)CCCCOc1ccc2c(c1)CCC(=O)N2 (stereo not shown) [Compound A, 6-(4-methylsulfoximino-butoxy)-3,4-dihydrocarbostyril mesitylenesulfonate] | 73 | 0 | 250 | 45000
4 | Cc1cc(S(=N)(=O)CCCCOc2ccc3[nH]c(=O)ccc3c2)ccc1Br (stereo not shown) [Compound I, 6-[4-(3-methyl-4-bromophenyl-sulfoximino)-butoxy]-carbostyril] | > 275 | 0 | 250 | 39
5 | N=S(=O)(CCCCOc1ccc2c(c1)CCC(=O)N2)c1ccc(Cl)cc1 (stereo not shown) [D, 6-[4-(4-chlorophenyl-sulfoximino)-butoxy]-3,4-dihydrocarbostyril] | 53 | 0 | 250 | 840
6 | CC(=O)N=S(=O)(CCCCOc1ccc2c(c1)CCC(=O)N2)c1ccc(Cl)c(Cl)c1 (stereo not shown) [E, 6-[4-(N-acetyl-3,4-dichlorophenyl-sulfoximino)-butoxy]-3,4-dihydrocarbostyril] | > 194 | 0 | 1000 | 840
7 | Cc1ccc(S(=O)(=O)N=S(=O)(CCCCOc2ccc3c(c2)CCC(=O)N3)c2ccc(Cl)c(Cl)c2)cc1 (stereo not shown) [F, 6-[4-(N-p-toluenesulfonyl-3,4-dichlorophenyl-sulfoximino)-butoxy]-3,4-dihydrocarbostyril] | > 212 | 0 | 250 | 900
8 | N=S(=O)(CCCCOc1ccc2[nH]c(=O)ccc2c1)c1ccc(F)cc1 (stereo not shown) [G, 6-[4-(4-fluorophenyl-sulfoximino)-butoxy]-carbostyril] | 85 | 0 | 250 | 400
9 | N=S(=O)(CCCCOc1ccc2[nH]c(=O)ccc2c1)c1ccc(Cl)cc1 (stereo not shown) [H, 6-[4-(4-chlorophenyl-sulfoximino)-butoxy]-carbostyril] | 78 | 0 | 250 | 170
10 | CC(C)(C)c1ccc(S(=N)(=O)CCCCOc2ccc3c(c2)CCC(=O)N3)cc1 (stereo not shown) [K, 6-[4-(4-tert.butylphenyl-sulfoximino)-butoxy]-3,4-dihydrocarbostyril] | > 180 | – | – | 240
11 | N=S(=O)(CCCCOc1ccc2c(c1)CCC(=O)N2)c1ccc(C2CCCCC2)cc1 (stereo not shown) [L, 6-[4-(4-cyclohexylphenyl-sulfoximino)-butoxy]-3,4-dihydrocarbostyril] | > 191 | – | – | 52
12 | CC(C)(C)c1ccc(S(=N)(=O)CCCCOc2ccc3[nH]c(=O)ccc3c2)cc1 (stereo not shown) [M, 6-[4-(4-tert.butylphenyl-sulfoximino)-butoxy]-carbostyril] | > 191 | – | – | 210
13 | N=S(=O)(CCCCOc1ccc2[nH]c(=O)ccc2c1)C1CCCCC1 (stereo not shown) [N, 6-(4-cyclohexylsulfoximino-butoxy)-carbostyril] | > 184 | – | – | 680
14 | CCCC(=O)N=S(=O)(CCCCOc1ccc2c(c1)CCC(=O)N2)c1ccc(Cl)c(Cl)c1 (stereo not shown) [O, 6-[4-(N-butyryl-3,4-dichlorophenyl-sulfoximino)-butoxy]-3,4-dihydrocarbostyril] | > 233 | – | – | 530
15 | CC(=O)N=S(=O)(CCCCOc1ccc2c(c1)C(C)(C)C(=O)N2)c1ccc(Cl)cc1 (stereo not shown) [P, 5-[4-(N-Acetyl-4-chlorophenyl-sulfoximino)-butoxy]-3,3-dimethyl-indolin-2-one] | > 169 | – | – | 1800
16 | COc1ccc(S(=O)(CCCCOc2ccc3c(c2)CCC(=O)N3)=NC(=O)c2ccc(C(C)(C)C)cc2)cc1OC (stereo not shown) [Q, 6-[4-(N-tert.benzoyl-3,4-dimethoxyphenyl-sulfoximino)-butoxy]-3,4-dihydrocarbostyril] | > 158 | – | – | 3100
17 | COc1ccc(S(=N)(=O)CCCCOc2ccc3c(c2)CCC(=O)N3)cc1OC (stereo not shown) [R, 6-[4-(3,4-dimethoxyphenyl-sulfoximino)-butoxy]-3,4-dihydrocarbostyril] | > 218 | – | – | 1600
